Reference: ChEMBL document CHEMBL4507283, “Data for DCP probe BI-1935” (2021)

Assays:
[1] = biological target: Homeodomain-interacting protein kinase 1 (Homo sapiens) (UniProt Q86Z02); conditions: Compound concentration 1000.0 nM
[2] = biological target: Fibroblast growth factor receptor 4 (Homo sapiens) (UniProt P22455); conditions: Compound concentration 1000.0 nM
[3] = biological target: Cathepsin G (Homo sapiens) (UniProt P08311); test: PEPCATHEPSG Eurofins-Panlabs selectivity data (BI); conditions: Compound concentration 10.0 uM
Sequence of Cathepsin G (Homo sapiens) (P08311 whole entry): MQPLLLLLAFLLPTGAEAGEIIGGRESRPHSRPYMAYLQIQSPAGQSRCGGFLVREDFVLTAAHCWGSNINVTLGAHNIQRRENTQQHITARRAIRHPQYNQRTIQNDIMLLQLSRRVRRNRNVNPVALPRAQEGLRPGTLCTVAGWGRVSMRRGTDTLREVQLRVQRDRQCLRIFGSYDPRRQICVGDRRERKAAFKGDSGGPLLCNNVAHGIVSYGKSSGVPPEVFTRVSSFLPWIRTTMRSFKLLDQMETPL

[4] = biological target: Membrane-associated tyrosine- and threonine-specific cdc2-inhibitory kinase (Homo sapiens) (UniProt Q99640); conditions: Compound concentration 1000.0 nM
[5] = biological target: Dual specificity protein kinase TTK (Homo sapiens) (UniProt P33981); conditions: Compound concentration 1000.0 nM
[6] = biological target: Sigma non-opioid intracellular receptor 1 (Homo sapiens, UniProt Q99720); conditions: Compound concentration 10.0 uM
Sequence of Sigma non-opioid intracellular receptor 1 (Q99720 whole entry): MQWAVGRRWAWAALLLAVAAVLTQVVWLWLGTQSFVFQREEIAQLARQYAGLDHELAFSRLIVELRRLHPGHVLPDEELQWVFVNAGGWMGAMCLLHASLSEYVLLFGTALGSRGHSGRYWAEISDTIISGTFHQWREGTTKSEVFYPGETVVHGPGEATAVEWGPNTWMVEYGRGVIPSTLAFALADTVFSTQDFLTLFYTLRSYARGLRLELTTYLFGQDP

[7] = test system: Epidermal growth factor receptor (Homo sapiens), P00533 [T790M]; conditions: Compound concentration 1000.0 nM
[8] = biological target: Homeodomain-interacting protein kinase 2 (Homo sapiens) (UniProt Q9H2X6); conditions: Compound concentration 1000.0 nM
Sequence of Homeodomain-interacting protein kinase 2 (Homo sapiens) (Q9H2X6 whole entry, looked up): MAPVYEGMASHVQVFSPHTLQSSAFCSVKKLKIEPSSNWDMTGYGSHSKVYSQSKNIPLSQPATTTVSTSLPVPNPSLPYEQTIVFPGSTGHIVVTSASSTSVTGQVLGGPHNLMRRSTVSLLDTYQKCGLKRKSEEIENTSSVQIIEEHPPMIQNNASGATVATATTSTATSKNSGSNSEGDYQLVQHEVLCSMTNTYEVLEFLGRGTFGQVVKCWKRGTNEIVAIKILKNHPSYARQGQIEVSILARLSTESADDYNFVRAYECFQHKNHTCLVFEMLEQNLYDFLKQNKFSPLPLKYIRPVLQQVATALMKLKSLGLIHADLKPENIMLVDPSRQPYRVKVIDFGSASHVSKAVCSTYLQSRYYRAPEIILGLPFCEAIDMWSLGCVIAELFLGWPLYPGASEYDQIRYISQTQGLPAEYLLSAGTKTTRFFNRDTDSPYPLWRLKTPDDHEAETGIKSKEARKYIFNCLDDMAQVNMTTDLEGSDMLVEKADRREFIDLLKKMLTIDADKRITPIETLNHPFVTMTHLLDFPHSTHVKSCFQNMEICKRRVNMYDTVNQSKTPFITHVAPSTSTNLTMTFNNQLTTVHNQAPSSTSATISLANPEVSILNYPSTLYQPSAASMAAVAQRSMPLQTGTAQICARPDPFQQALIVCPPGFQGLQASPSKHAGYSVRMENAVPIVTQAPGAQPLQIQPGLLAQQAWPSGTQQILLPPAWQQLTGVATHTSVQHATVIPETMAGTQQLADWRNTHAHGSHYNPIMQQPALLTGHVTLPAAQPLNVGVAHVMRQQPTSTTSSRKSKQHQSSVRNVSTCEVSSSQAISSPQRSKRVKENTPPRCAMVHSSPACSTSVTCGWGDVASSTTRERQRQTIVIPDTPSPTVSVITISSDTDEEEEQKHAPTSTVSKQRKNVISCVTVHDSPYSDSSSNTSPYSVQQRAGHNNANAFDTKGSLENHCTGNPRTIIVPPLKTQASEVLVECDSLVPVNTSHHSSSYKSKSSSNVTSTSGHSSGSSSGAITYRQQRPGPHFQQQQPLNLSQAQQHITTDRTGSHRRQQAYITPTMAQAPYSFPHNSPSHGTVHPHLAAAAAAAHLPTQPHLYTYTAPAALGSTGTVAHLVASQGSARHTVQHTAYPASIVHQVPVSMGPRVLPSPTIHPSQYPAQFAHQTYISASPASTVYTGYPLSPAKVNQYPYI

[9] = test system: Mast/stem cell growth factor receptor Kit (Homo sapiens), P10721 [D816H]; conditions: Compound concentration 1000.0 nM
[10] = biological target: BDNF/NT-3 growth factors receptor (Homo sapiens) (UniProt Q16620); conditions: Compound concentration 1000.0 nM
[11] = test system: Epidermal growth factor receptor (Homo sapiens), P00533 [G719C]; conditions: Compound concentration 1000.0 nM
[12] = biological target: Activin receptor type-1 (Homo sapiens) (UniProt Q04771); conditions: Compound concentration 1000.0 nM
[13] = biological target: Serine/threonine-protein kinase pim-3 (Homo sapiens) (UniProt Q86V86); conditions: Compound concentration 1000.0 nM
[14] = biological target: 5-hydroxytryptamine receptor 2A (Homo sapiens) (UniProt P28223); conditions: Compound concentration 10.0 uM
[15] = biological target: Calcium/calmodulin-dependent protein kinase kinase 2 (Homo sapiens) (UniProt Q96RR4); conditions: Compound concentration 1000.0 nM
[16] = biological target: Ephrin type-A receptor 2 (Homo sapiens) (UniProt P29317); conditions: Compound concentration 1000.0 nM
[17] = biological target: Serine/threonine-protein kinase PAK 5 (Homo sapiens) (UniProt Q9P286); conditions: Compound concentration 1000.0 nM
[18] = biological target: Acetylcholinesterase (Homo sapiens) (UniProt P22303); test: ACHOLINEST Eurofins-Panlabs selectivity data (BI); conditions: Compound concentration 10.0 uM
[19] = biological target: Dual specificity protein kinase CLK4 (Homo sapiens) (UniProt Q9HAZ1); conditions: Compound concentration 1000.0 nM
[20] = biological target: Amine oxidase [flavin-containing] A (MAO-A) (Homo sapiens, UniProt P21397); test: MAOA Eurofins-Panlabs selectivity data (BI); set-up: mode of action inhibitor; conditions: compound concentration 10 uM, read-out: % Ctrl
[21] = test system: Mast/stem cell growth factor receptor Kit (Homo sapiens), P10721 [V559D]; conditions: Compound concentration 1000.0 nM
[22] = test system: Phosphatidylinositol 4,5-bisphosphate 3-kinase catalytic subunit alpha isoform (Homo sapiens), P42336 [M1043I]; conditions: Compound concentration 1000.0 nM
[23] = biological target: Histamine H4 receptor (Homo sapiens) (UniProt Q9H3N8); conditions: Compound concentration 10.0 uM
[24] = biological target: Calcitonin-gene-related peptide receptor, CALCRL/RAMP1 (Homo sapiens) (UniProt O60894+Q16602); test: CGRP/HU Eurofins-Panlabs selectivity data (BI); assay type: protein-complex assay; conditions: Compound concentration 10.0 uM
[25] = test system: Receptor-type tyrosine-protein kinase FLT3 (Homo sapiens), P36888 [N841I]; conditions: Compound concentration 1000.0 nM
[26] = biological target: Serine/threonine-protein kinase TAO1 (Homo sapiens) (UniProt Q7L7X3); conditions: Compound concentration 1000.0 nM
[27] = biological target: Tyrosine-protein kinase Tec (Homo sapiens) (UniProt P42680); conditions: Compound concentration 1000.0 nM
[28] = biological target: Serine/threonine-protein kinase mTOR (Homo sapiens) (UniProt P42345); conditions: Compound concentration 1000.0 nM
[29] = biological target: Dual specificity tyrosine-phosphorylation-regulated kinase 1A (Homo sapiens) (UniProt Q13627); conditions: Compound concentration 1000.0 nM
[30] = biological target: Voltage-dependent L-type calcium channel subunit alpha-1C (Rattus norvegicus, UniProt P22002); test: CA+/TLATATG Eurofins-Panlabs selectivity data (BI); set-up: species or system Cavia porcellus; mode of action antagonist; conditions: guinea pig, atrial tissue, read-out: % Ctrl
Sequence of Voltage-dependent L-type calcium channel subunit alpha-1C (P22002 whole entry): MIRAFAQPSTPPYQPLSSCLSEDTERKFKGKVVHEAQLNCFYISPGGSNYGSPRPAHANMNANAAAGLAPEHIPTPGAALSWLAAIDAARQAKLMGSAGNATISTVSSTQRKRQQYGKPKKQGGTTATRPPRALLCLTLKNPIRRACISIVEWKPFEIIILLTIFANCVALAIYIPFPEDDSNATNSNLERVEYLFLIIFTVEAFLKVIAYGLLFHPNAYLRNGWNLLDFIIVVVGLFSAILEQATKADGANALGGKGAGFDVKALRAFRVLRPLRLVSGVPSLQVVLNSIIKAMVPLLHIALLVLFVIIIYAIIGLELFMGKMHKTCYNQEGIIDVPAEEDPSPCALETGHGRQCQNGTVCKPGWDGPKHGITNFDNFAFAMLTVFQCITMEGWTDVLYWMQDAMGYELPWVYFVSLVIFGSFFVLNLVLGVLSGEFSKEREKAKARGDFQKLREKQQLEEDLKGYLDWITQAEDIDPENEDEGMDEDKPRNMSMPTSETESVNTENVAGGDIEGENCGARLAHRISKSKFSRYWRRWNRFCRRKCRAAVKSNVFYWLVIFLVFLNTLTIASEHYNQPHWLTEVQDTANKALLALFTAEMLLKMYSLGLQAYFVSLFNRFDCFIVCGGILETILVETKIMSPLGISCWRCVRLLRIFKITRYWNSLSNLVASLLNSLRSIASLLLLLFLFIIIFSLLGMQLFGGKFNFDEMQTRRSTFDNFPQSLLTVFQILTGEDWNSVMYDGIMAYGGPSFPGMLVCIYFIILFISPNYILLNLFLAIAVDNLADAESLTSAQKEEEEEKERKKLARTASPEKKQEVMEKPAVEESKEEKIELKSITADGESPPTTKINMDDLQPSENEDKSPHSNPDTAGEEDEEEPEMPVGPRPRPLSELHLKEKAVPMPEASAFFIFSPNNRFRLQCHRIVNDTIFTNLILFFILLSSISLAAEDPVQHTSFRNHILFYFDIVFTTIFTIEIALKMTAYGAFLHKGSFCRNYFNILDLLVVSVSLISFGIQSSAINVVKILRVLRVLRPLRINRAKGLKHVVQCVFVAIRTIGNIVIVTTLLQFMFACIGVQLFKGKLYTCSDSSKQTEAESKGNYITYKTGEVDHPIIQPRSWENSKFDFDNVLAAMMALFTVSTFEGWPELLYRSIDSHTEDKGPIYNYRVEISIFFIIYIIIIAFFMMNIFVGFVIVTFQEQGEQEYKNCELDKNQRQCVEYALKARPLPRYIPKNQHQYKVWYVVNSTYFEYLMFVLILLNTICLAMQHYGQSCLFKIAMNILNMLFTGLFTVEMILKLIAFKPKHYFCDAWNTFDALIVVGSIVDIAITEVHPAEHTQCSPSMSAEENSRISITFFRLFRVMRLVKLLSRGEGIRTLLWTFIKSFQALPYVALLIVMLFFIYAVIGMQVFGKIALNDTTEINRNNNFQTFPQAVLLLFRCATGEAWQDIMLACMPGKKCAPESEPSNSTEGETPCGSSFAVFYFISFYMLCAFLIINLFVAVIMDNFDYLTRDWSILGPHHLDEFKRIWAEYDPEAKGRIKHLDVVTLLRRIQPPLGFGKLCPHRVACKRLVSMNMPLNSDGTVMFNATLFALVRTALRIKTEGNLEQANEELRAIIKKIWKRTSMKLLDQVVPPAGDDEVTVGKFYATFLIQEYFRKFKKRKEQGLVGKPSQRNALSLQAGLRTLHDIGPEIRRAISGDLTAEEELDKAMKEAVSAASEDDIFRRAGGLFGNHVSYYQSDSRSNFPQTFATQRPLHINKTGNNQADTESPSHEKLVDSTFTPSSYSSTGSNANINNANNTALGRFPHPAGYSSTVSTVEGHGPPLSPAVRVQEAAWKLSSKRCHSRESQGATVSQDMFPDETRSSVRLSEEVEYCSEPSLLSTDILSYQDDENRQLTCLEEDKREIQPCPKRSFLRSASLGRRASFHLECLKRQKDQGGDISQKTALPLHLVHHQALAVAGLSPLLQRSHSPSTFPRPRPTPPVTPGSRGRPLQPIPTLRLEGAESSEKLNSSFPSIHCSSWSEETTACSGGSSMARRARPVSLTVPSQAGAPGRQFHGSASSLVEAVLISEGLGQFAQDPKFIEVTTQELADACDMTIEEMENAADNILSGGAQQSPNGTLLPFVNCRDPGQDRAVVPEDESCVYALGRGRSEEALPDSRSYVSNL

[31] = biological target: Serine/threonine-protein kinase Nek2 (Homo sapiens) (UniProt P51955); conditions: Compound concentration 1000.0 nM
[32] = test system: Tyrosine-protein kinase ABL1 (Homo sapiens), P00519 [Q252H]; conditions: Compound concentration 1000.0 nM
[33] = biological target: RAC-gamma serine/threonine-protein kinase (Homo sapiens) (UniProt Q9Y243); conditions: Compound concentration 1000.0 nM
Sequence of RAC-gamma serine/threonine-protein kinase (Homo sapiens) (Q9Y243 whole entry): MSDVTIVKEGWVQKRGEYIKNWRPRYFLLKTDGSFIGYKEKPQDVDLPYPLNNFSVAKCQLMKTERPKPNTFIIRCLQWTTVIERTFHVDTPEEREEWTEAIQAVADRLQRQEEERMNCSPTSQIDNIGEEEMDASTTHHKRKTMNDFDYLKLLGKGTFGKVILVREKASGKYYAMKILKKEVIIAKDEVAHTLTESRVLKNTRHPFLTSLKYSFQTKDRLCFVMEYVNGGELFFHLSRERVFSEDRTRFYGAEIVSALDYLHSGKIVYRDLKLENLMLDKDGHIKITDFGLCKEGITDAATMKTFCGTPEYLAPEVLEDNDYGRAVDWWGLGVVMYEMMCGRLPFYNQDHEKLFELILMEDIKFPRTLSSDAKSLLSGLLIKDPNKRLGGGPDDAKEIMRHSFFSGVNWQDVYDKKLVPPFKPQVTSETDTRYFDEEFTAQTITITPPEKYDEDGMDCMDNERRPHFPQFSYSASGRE

[34] = biological target: Mitogen-activated protein kinase 4 (Homo sapiens) (UniProt P31152); conditions: Compound concentration 1000.0 nM
[35] = biological target: Phosphatidylinositol 4,5-bisphosphate 3-kinase catalytic subunit beta isoform (Homo sapiens) (UniProt P42338); conditions: Compound concentration 1000.0 nM
[36] = biological target: Fibroblast growth factor receptor 3 (Homo sapiens) (UniProt P22607); conditions: Compound concentration 1000.0 nM
[37] = biological target: Myosin light chain kinase (Homo sapiens) (UniProt Q32MK0); conditions: Compound concentration 1000.0 nM
[38] = biological target: Mitogen-activated protein kinase 11 (Homo sapiens) (UniProt Q15759); conditions: Compound concentration 1000.0 nM
Sequence of Mitogen-activated protein kinase 11 (Homo sapiens) (Q15759 whole entry): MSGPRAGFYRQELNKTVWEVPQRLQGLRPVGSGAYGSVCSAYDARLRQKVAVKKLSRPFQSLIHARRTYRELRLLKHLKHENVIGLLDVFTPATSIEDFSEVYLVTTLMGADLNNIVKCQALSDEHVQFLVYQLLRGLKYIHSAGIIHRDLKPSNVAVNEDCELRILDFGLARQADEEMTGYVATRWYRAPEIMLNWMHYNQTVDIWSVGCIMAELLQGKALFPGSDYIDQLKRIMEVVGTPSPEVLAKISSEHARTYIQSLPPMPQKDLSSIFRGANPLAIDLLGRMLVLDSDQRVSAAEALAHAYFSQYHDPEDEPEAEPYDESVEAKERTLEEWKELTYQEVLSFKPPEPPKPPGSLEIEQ

[39] = biological target: Receptor-type tyrosine-protein kinase FLT3 (Homo sapiens) (UniProt P36888); conditions: Compound concentration 1000.0 nM
[40] = biological target: Bone morphogenetic protein receptor type-2 (Homo sapiens) (UniProt Q13873); conditions: Compound concentration 1000.0 nM
[41] = biological target: Fibroblast growth factor receptor 2 (Homo sapiens) (UniProt P21802); conditions: Compound concentration 1000.0 nM
[42] = biological target: D(2) dopamine receptor (Homo sapiens) (UniProt P14416); test: D2L/H Eurofins-Panlabs selectivity data (BI); conditions: Compound concentration 10.0 uM
[43] = biological target: Ephrin type-A receptor 4 (Homo sapiens) (UniProt P54764); conditions: Compound concentration 1000.0 nM
[44] = biological target: Vascular endothelial growth factor receptor 1 (Homo sapiens) (UniProt P17948); conditions: Compound concentration 1000.0 nM

CCOCCn1cc(C(=O)Nc2ccc(-n3nc(-c4cccnc4)cc3C(F)(F)F)cn2)ccc1=O [BI 1935]
27%: activity at 10 µM [20]
25%: activity at 10 µM ([30]; compound concentration 10 uM)
68% (not active): activity at 3 µM ([30]; compound concentration 3 uM)
86% (not active): activity at 1 µM ([30]; compound concentration 1 uM)
inactive: residual activity [1] 90% | residual activity [2] 100% | residual activity [3] 117% | residual activity [4] 100% | residual activity [5] 100% | inhibition [6] 50% | residual activity [7] 100% | residual activity [8] 100% | residual activity [9] 79% | residual activity [10] 100% | residual activity [11] 97% | residual activity [12] 75% | residual activity [13] 90% | inhibition [14] -4.26% | residual activity [15] 100% | residual activity [16] 93% | residual activity [17] 98% | residual activity [19] 100% | residual activity [21] 87% | residual activity [22] 100% | inhibition [23] 48.6% | residual activity [24] 105% | residual activity [25] 92% | residual activity [26] 87% | residual activity [27] 100% | residual activity [28] 100% | residual activity [29] 77% | residual activity [31] 100% | residual activity [32] 73% | residual activity [33] 100% | residual activity [34] 100% | residual activity [35] 82% | residual activity [36] 84% | residual activity [37] 97% | residual activity [38] 80% | residual activity [39] 87% | residual activity [40] 100% | residual activity [42] 97% | residual activity [43] 91% | residual activity [44] 100%
active: residual activity [18] 41% | residual activity [41] 49%
